In publication PMC8696185, “Purification and Characterization of Plantaricin YKX and Assessment of Its Inhibitory Activity Against Alicyclobacillus spp” (Frontiers in Microbiology, 2021):
Bridges are numbered along the chain shown (N, C = ends). Where no end group is shown, it is not given here. [ ]: non-standard residue; d: D form. Dhb = C/C=C(\N)C(=O)O; Dha = C=C(N)C(=O)O

What was measured:
[1] = tested on: A. acidoterrestris ATCC 3922; assay: Kill kinetics (time-killing curves); assay type: cell-based, Alicyclobacillus acidoterrestris; conditions: for Time within which all cells were inactivated: at the MICs (1 × MIC)
Text: FIGURE 3 Antibacterial activity of plantaricin YKX against A. acidoterrestris.

[2] = tested on: luxS gene of A. acidoterrestris; assay: RT-qPCR, transcription of luxS; assay type: cell-based, Alicyclobacillus acidoterrestris; conditions: co-cultured at 0.5 × MIC, 0.7 × MIC, and 0.9 × MIC, overnight incubation
Protocol: To verify the effect of plantaricin YKX on the QS system, Real-Time Quantitative PCR (RT-qPCR) was used to detect the transcription level changes of the gene (luxS) encoding a QS signal (Al-2) synthesis enzyme (LuxS) in A. acidoterrestris. The mid-logarithmic phase cells of A. acidoterrestris were treated with plantaricin YKX at 0.5 ×, 0.7 ×, or 0.9 × MIC. After overnight incubation, RNA was extracted according to the Trizol method.
The reverse transcription reaction system (10 μL) contained: Total RNA 2 μL; dNTP 0.5 μL; Random primers 0.5 μL; and distilled water without RNAase 4 μL. All samples were maintained at 70°C for 5 min and then kept immediately in an ice bath. 5X reverse transcription buffer 2 μL, RNAase inhibitor 0.5 μL, and MMLV reverse transcription enzyme 0.5 μL were added immediately. Thus, the reverse transcription conditions were: 30°C for 10 min, 42°C for 1 h, 70°C for 15 min, and 4°C forever. After the reverse transcription reaction, the DNA templates were diluted 5 times and stored at −20°C until used.
PCR reaction included: upstream primer (10 μM) 0.2 μL, downstream primer (10 μM) 0.2 μL, 2 × Ultra SYBR Mixture 5 μL, ddH2O 3.6 μL, DNA templates 1 μL. The PCR reaction parameters were: 95°C for 10 min, 95°C for 15 s, 60°C for 1 min, 40 cycles. Primers (5′-[…]-3′; 5′-[…]-3′) were designed according to the gene sequence of luxS by the Primer 5.0 software.

Alicyclobacillus spp. = conditions: literature value; ref Yamazaki et al., 2000; cited from earlier work
Protocol: On the other hand, the MICs of plantaricin YKX and nisin inactivated all cells within 180 min.

[3] = tested on: Aspergillus niger CICC 2124; assay: Minimal inhibitory concentration (MIC); assay type: cell-based; conditions: twofold serial dilution, 96-well plate, 24 h at 30°C, OD600; highest conc. not given in μg/mL (stock 1,024 IU/mL)
Protocol: (§1) The minimal inhibitory concentration (MIC) of plantaricin YKX toward indicator strains was measured according to the [Clinical and Laboratory Standards Institute (2012)]. Indicator strains in the mid-logarithmic growth phase were adjusted to the OD600 of 0.5 and diluted 100-fold with appropriate media. First, the plantaricin YKX solution (1,024 IU/mL) was twofold serially diluted with distilled water. Next, 100 μL each indicator strain suspension and aliquots of plantaricin YKX solution were incubated [1:1 (v/v) ratio] in a 96-well plate for 24 h at 45°C with Alicyclobacillus spp. as indicator strain and at 30°C for other indicator strains listed in Table 1. The efficacy of nisin (> 90% pure, J & K Chemical Technology) was also determined. As a control, distilled water was added to the indicator strains suspensions. Following incubation, the MICs were determined by measuring the OD600 using a microplate reader (SpectraMax 190, Molecular Devices, CA, United States).

[4] = tested on: Candida albicans CICC 1965; assay: Minimal inhibitory concentration (MIC); assay type: cell-based; conditions: twofold serial dilution, 96-well plate, 24 h at 30°C, OD600; highest conc. not given in μg/mL (stock 1,024 IU/mL)
Protocol: as §1

[5] = tested on: Enterobacter cloacae CICC 21539; assay: Minimal inhibitory concentration (MIC); assay type: cell-based; conditions: twofold serial dilution, 96-well plate, 24 h at 30°C, OD600; highest conc. not given in μg/mL (stock 1,024 IU/mL)
Protocol: as §1

[6] = tested on: Pseudomonas aeruginosa CICC 21636; assay: Minimal inhibitory concentration (MIC); assay type: cell-based; conditions: twofold serial dilution, 96-well plate, 24 h at 30°C, OD600; highest conc. not given in μg/mL (stock 1,024 IU/mL)
Protocol: as §1

[7] = tested on: Saccharomyces cerevisiae CICC 1002; assay: Minimal inhibitory concentration (MIC); assay type: cell-based; conditions: twofold serial dilution, 96-well plate, 24 h at 30°C, OD600; highest conc. not given in μg/mL (stock 1,024 IU/mL)
Protocol: as §1

[8] = tested on: Salmonella paratyphi β CICC 10437; assay: Minimal inhibitory concentration (MIC); assay type: cell-based; conditions: twofold serial dilution, 96-well plate, 24 h at 30°C, OD600; highest conc. not given in μg/mL (stock 1,024 IU/mL)
Protocol: as §1

[9] = tested on: A. acidoterrestris DSM3922 as indicator stain; assay: Effect of enzymes on antibacterial activity (stability); assay type: in vitro ADME, Alicyclobacillus acidoterrestris; parameters: key to Antibacterial ability after Lipase, α-AMYLASE / Antibacterial ability after Trypsin, pepsin: Antimicrobial activity +: there is a clear inhibition zone.; Antimicrobial activity –: there is no inhibition zone; key to Antibacterial ability after Proteinase K, papain, α-chymotrypsin: −: Antimicrobial activity –: there is no inhibition zone; conditions: enzyme 1.0 mg/mL, 37°C for 30 min, agar well diffusion
Protocol: (§2) The effect of temperature (60, 80, or 100°C) on the activity of purified plantaricin YKX was analyzed within a certain time (10, 20, or 30 min) ([An et al., 2017]). The long-term stability was investigated at 37°C for […] and at 4°C for 3 months ([Yue et al., 2013]). The impact of pH on plantaricin YKX was analyzed by adjusting pH to 2–10 with 1 M HCl and 1 M NaOH solutions and determining residual activities after maintaining at 37°C for 2 h ([Yue et al., 2013]). The effect of enzymes on the antibacterial activity of plantaricin YKX was determined following incubation with enzymes lipase [pH 7.0, 10 mM phosphate-buffered saline (PBS)], α-amylase (pH 7.0, 10 mM PBS), trypsin (pH 7.5, 10 mM PBS), proteinase K (pH 7.5, 50 mM Tris-HCl), papain (pH 7.5, 10 mM PBS), and pepsin (pH 3.0, 0.1 M HCl) at 37°C for 30 min with their optimal pH and a final concentration of 1.0 mg/mL. The enzymes were inactivated by heating at 100°C for 5 min, and the pH was then adjusted to pH 6.0 ([Yue et al., 2013]). Plantaricin YKX without any treatments was employed as a control. Agar well diffusion assay was utilized to determine the antibacterial activity ([Pei et al., 2020]).

[10] = tested on: E. coli CICC10302 as indicator stain; assay: as above; assay type: in vitro ADME, Escherichia coli; parameters: key to Antibacterial ability after Lipase, α-AMYLASE / Antibacterial ability after Trypsin, pepsin: Antimicrobial activity +: there is a clear inhibition zone.; Antimicrobial activity –: there is no inhibition zone; key to Antibacterial ability after Proteinase K, papain, α-chymotrypsin: −: Antimicrobial activity –: there is no inhibition zone; conditions: enzyme 1.0 mg/mL, 37°C for 30 min, agar well diffusion
Protocol: as §2

[11] = tested on: A. acidoterrestris DSM3922 as indicator stain; assay: Heat, storage and pH stability, residual antibacterial activity; assay type: physicochemical, Alicyclobacillus acidoterrestris; parameters: key to Antibacterial ability after pH 2–7 / Antibacterial ability after 60, 80, and 100°C / Antibacterial ability after 37°C for 14 d / Antibacterial ability after 2 months at 4°C: Antimicrobial activity +: there is a clear inhibition zone.; Antimicrobial activity –: there is no inhibition zone; key to Antibacterial ability after pH 9–10: −: Antimicrobial activity –: there is no inhibition zone; conditions: agar well diffusion
Protocol: as §2

[12] = tested on: E. coli CICC10302 as indicator stain; assay: as above; assay type: physicochemical, Escherichia coli; parameters: key to Antibacterial ability after pH 2–7 / Antibacterial ability after 60, 80, and 100°C / Antibacterial ability after 37°C for 14 d / Antibacterial ability after 2 months at 4°C: Antimicrobial activity +: there is a clear inhibition zone.; Antimicrobial activity –: there is no inhibition zone; key to Antibacterial ability after pH 9–10: −: Antimicrobial activity –: there is no inhibition zone; conditions: agar well diffusion
Protocol: as §2

[13] = Heat, storage and pH stability (indicator not given); assay type: physicochemical
Protocol: as §2

[14] = tested on: A. acidoterrestris DSM3922 cells; assay: Flow cytometry, propidium iodide uptake (membrane integrity); assay type: cell-based, Alicyclobacillus acidoterrestris; conditions: 2 × MIC, incubation for 30 min, 45°C, propidium iodide 10 μg/mL
Protocol: Log phase A. acidoterrestris DSM3922 cells were incubated with plantaricin YKX at 0.5×, 1×, or 2× MIC (control: cells treated with PBS) at 45°C for 15 min. Next, they were centrifuged, rinsed, and treated with propidium iodide (10 μg/mL) for 15 min at 45°C ([Gut et al., 2011]). After removing the unbound stain, the fluorescence intensities were analyzed by an AccuriC6 flow cytometer (BD Biosciences, MI, United States). Forty thousand events were acquired per sample and detected at excitation (488 nm) and emission wavelengths (525 nm).

[15] = tested on: A. acidoterrestris DSM3922 endospores; assay: Endospore germination, microscopic counting; assay type: cell-based, Alicyclobacillus acidoterrestris; conditions: 2 h post-germination treatment, untreated 43.6%
[16] = tested on: A. acidoterrestris DSM3922; assay: Guaiacol production, HPLC; assay type: cell-based, Alicyclobacillus acidoterrestris; conditions: AAM broth, 45°C, HPLC 275 nm, control 20.6 μg/L
Protocol: A. acidoterrestris DSM3922 was inoculated in AAM broth containing plantaricin YKX at 0.5 ×, 0.7 × or 0.9 × MIC (control without plantaricin YKX) and cultured at 45°C. Samples were tested for OD600 after 24 h. After the samples were centrifuged at 8,000 g at 4°C and passed through 0.22 μm filter membrane, the guaiacol content was determined with an analytical HPLC dual pump Shimadzu LC-20 AB system equipped with UltimateXB-C18 column (4.6 × 250 mm, particle size 5 μm, Kyoto, Japan) ([Lin et al., 2006]). The mobile phase was 30% (v/v) acetonitrile in 0.1% (v/v) formic acid. The column temperature was maintained at 40°C. The mobile phase flow rate was set at 1 mL/min. The detection wavelength was 275 nm.

[17] = tested on: Clostridium butyricum CICC 10350; conditions: CICC 10350, 24 h
[18] = optimal pH (proteinase K pH 7.5 Tris-HCl, papain pH 7.5 PBS)
[19] = pH 7.0, 10 mM PBS, enzyme inactivated 100°C 5 min, pH adjusted to 6.0
[20] = trypsin pH 7.5 10 mM PBS, pepsin pH 3.0 0.1 M HCl
[21] = pH adjusted with 1 M HCl / 1 M NaOH, 37°C for 2 h

In the case of “nisin: typical class I (lanthionine-based) bacteriocin, > 90% pure, J & K Chemical Technology (I[Dhb]SI[Dha]LCTPGCKTGALMGCNMKTATCHCSIHV[Dha]K; bridge 23-26, 13-19, 8-11, 25-28, 3-7; not fully specified (residues 3, 8, 13, 23, 25, bridges); UniProt P13068 24-57, looked up) [reference compound]”, the “Time within which all cells were inactivated” value [1] is given as no more than 180 min, the “Expression of the luxS gene” value [2] is given as “did not show a similar function” and the MIC (Alicyclobacillus spp.) is given as 16 to 32 µg/mL.
For KYGNGLSRIFSALK [plantaricin YKX], the MICs [3] was “> highest conc. tested”, the MICs [4] was “> highest conc. tested” and the MICs [5] was “> highest conc. tested”. For the same substance, the MICs [6] was “> highest conc. tested”, the MICs [7] was “> highest conc. tested” and the MICs [8] was “> highest conc. tested”. The “Antibacterial ability after Proteinase K, papain, α-chymotrypsin” value [9, 18] was “–”, the “Antibacterial ability after Lipase, α-AMYLASE” value [9, 19] was “+” and the “Antibacterial ability after Trypsin, pepsin” value [9, 20] was “+”. For the same substance, the “Antibacterial ability after Proteinase K, papain, α-chymotrypsin” value [10, 18] was “–”, the “Antibacterial ability after Lipase, α-AMYLASE” value [10, 19] was “+” and the “Antibacterial ability after Trypsin, pepsin” value [10, 20] was “+”. For the same substance, the “Antibacterial ability after 60, 80, and 100°C” value ([11]; heated for 10, 20, or 30 min) was “+”, the “Antibacterial ability after 2 months at 4°C” value ([11]; long-term storage) was “+” and the “Antibacterial ability after 37°C for 14 d” value ([11]; long-term storage) was “+”. For the same substance, the “Antibacterial ability after pH 2–7” value [11, 21] was “+”, the “Antibacterial ability after pH 9–10” value [11, 21] was “–” and the “Antibacterial ability after 60, 80, and 100°C” value ([12]; heated for 10, 20, or 30 min) was “+”. For the same substance, the “Antibacterial ability after 2 months at 4°C” value ([12]; long-term storage) was “+”, the “Antibacterial ability after 37°C for 14 d” value ([12]; long-term storage) was “+” and the “Antibacterial ability after pH 2–7” value [12, 21] was “+”. For the same substance, the “Antibacterial ability after pH 9–10” value [12, 21] was “–”, the “Antibacterial activity after storage” value ([13]; 3 months at 4°C, agar well diffusion) was “did not alter its antibacterial activity” and the “pH at which the activity was lost” value ([13]; 37°C for 2 h at adjusted pH, residual activity by agar well diffusion) was 9.0. For the same substance, the “Antibacterial activity after storage” value ([13]; 37°C for up to 14 days, agar well diffusion) was “did not alter its antibacterial activity”, the “pH range in which active (abstract)” value ([13]; as stated in the abstract) was 3–8 and the “Heat stability, activity after heating” value ([13]; heating at 60, 80, or 100°C (10, 20, or 30 min), agar well diffusion) was “retaining activity”. For the same substance, the “Time within which the number of cells was substantially decreased” value ([1]; 2 MIC) was no more than 30 min, the “Time within which all cells were inactivated” value [1] was no more than 180 min and the “Proportion of PI-stained cells” value [14] was 91.6%. For the same substance, the “Germination rate of spores” value ([15]; 0.5 × MIC) was 55.4%, the “Germination rate of spores” value ([15]; 0.7 × MIC) was 70.5% and the “Germination rate of spores” value ([15]; 0.9 × MIC) was 81.7%. It also gave a Production of guaiacol ([16]; 0.5 × MIC) of 16.8 µg/L, a Production of guaiacol ([16]; 0.7 × MIC) of 10.1 µg/L and a Production of guaiacol ([16]; 0.9 × MIC) of 8.9 µg/L. The “Expression of the luxS gene” value [2] was “increased significantly” and the MICs [17] was 32 µg/mL.
